{"source": "patent US8367716B2", "about": "(priority 2003, dated 2013)", "key": {"[1]": {"assay_type": "physicochemical", "protocol": "c-di-GMP, CGMP and 5′-GMP nucleotides used. c-di-GMP used in the studies in this example was biochemically synthesized in pure form using a recently described novel synthesis method that produces a pure and high yielding preparation of c-di-GMP diammonium salt (FIG. 5A) (Hayakawa et al., 2003). Before use, the purity and stability of lyophilized c-di-GMP was determined by first resuspending the molecule in 0.9% NaCl creating a 2 mM solution then confirmed by HPLC analysis and ESI-TOF MS spectrometry. The cGMP (guanosine 3′, 5′-cyclic monophosphate, Sigma #G7504) and 5′-GMP (guanosine 5′-monophosphate, TCI, Tokyo Kasei Kogyo Co.) nucleotides were also used. Unless otherwise stated, a 4 mM stock solution of each nucleotide in 0.9% NaCl was prepared and stored at 4° C. until needed.\nc-di-GMP stability tests. Although the term c-di-GMP is used here, c-di-GMP diammonium salt (and not the free diphosphoric acid) was used for these stability tests. (i) In boiling water: A 2 mM solution of c-di-GMP in water was prepared by dissolving 2.42 mg (3.3 μmol) of c-di-GMP in 1.65 mL of ion-exchanged/ion-free water (prepared by passing distilled water through ion-exchange resins). This solution was heated at 100° C. for 10 min and then concentrated under reduced pressure. The resulting residual was subjected to the HPLC analysis under conditions shown below. (ii) In pH 3 solution: From the 2 mM c-di-GMP aqueous solution described above, 500 μl (containing […] of c-di-GMP) was dissolved in 20 mL of 1 mM HCl to produce a solution with pH 3 (confirmed by pH meter). The resulting solution was stirred at room temperature for 1 h and then neutralized by the addition of 200 mL of a 0.1 mM NaOH. Water was evaporated under reduced pressure and the resulting residue was subjected to HPLC analysis. (iii) In pH 10 solution: From the 2 mM c-di-GMP aqueous solution described above, 500 μl (containing […] of c-di-GMP) was dissolved in 200 mL of a 0.1 mM NaOH aqueous solution to produce a solution with pH 10 (confirmed by pH meter). The resulting solution was stirred at room temperature for 1 h. The reaction was quenched by addition of 20 mL of a 1 mM HCl. Concentration of the resulting neutral solution under reduced pressure gave a residual material that was subjected to the HPLC analysis. The HPLC analysis was performed on a Waters 2695 Separation Module with a Waters 2996 Photodiode Array Detector under the following conditions. Column: Nacalai Tesque COSMOSIL 5C18-AR-II column (4.6 mm (diameter)×250 mm (length)); detection: 254 nm of UV ray; temperature: 40° C.; eluent: A=0.9% NaCl (aq), B=a 20:80 mixture of water:acetonitrile; flow rate:1 mL/min; 0-10 min: A 100%; 10-60 min: linear gradient from A100%/B 0% to A 40% to B 60%."}, "V. cholerae N16961": {"tested_on": "V. cholerae N16961", "test": "Crystal violet quantitative biofilm assay in glass test tubes", "assay_type": "cell-based, Vibrio cholerae"}, "[2]": {"tested_on": "S. aureus Newbould 305 strain", "test": "Mouse mastitis model of S. aureus infection", "assay_type": "in vivo, Staphylococcus aureus", "protocol": "A mouse mastitis model of S. aurreus infection using the S. aureus Newbould 305 strain (Brouillette et al., 2003, 2004a and 2004b) was used to show the effectiveness of treatment with c-di-GMP. Three mice per group and two glands per mouse were used for a total of six samples per treatment. 100 CFU (colony forming units) of S. aureus Newbould 305 strain were inoculated into each mammary gland. Five or 50 nanomoles of c-di-GMP was administered by injection twice into each mammary gland at 0 hr. (pre-mixed with the S. aureus inoculum in 100 μl volume, i.e., 50 or 500 μM concentration) and at 4 hr. post-infection (in 50 μl, i.e., 100 or 1000 μM). The mammary glands were harvested at 10 hrs. post-infection. Considering the volume of the mammary gland with milk to be about 250 μl, the final concentration of c-di-GMP in the mammary gland at each injection was estimated to be 20 μM or 200 μM."}, "[3]": {"settings": "0.2 N NaOH, ~pH 13.5, 37° C. for 24 h; Ross et al.; cited from earlier work"}, "Salmonela enteritidis": {"tested_on": "Salmonela enteritidis", "test": "Biofilm formation in Salmonela enteritidis", "assay_type": "cell-based"}, "CD-1 mice": {"tested_on": "CD-1 mice", "test": "Lethality in mice after oral c-di-GMP", "assay_type": "in vivo", "settings": "50 μL of 200 μM, orally, examined 24 h after treatment", "protocol": "Safety and toxicity assays. For HeLa cell toxicity studies, various concentrations (0-, 25-, 50-, 100-, 200- and 400 μM) of c-di-GMP were tested in separate wells of chamber slides containing HeLa cells prepared as described above in complete media (in the absence of bacteria). HeLa cell morphology was examined microscopically after 12-, 24- and 48 h incubation. The potential lethality of c-di-GMP administered to mice was also examined. In these studies, adult female CD-1 mice and 5 day old infant mice were inoculated orally with 50 μL of 200 μM c-di-GMP and examined 24 h after c-di-GMP treatment."}}}
{"smiles": "Nc1nc2c(ncn2C2OC3COP(=O)(O)OC4C(COP(=O)(O)OC3C2O)OC(n2cnc3c(=O)[nH]c(N)nc32)C4O)c(=O)[nH]1", "note": "(stereo not shown) [c-di-GMP, 3′,5′-cyclic diguanylic acid]", "values": [{"measurement": "solubility", "setting": "[1]", "result": "soluble"}, {"measurement": "stability in 100 mM ammonium acetate buffer", "setting": "[1]", "result": "stable"}, {"measurement": "stability in 100 mM phosphate buffer", "setting": "[1]", "result": "stable"}, {"measurement": "stability in 0.9% NaCl solution (monomeric structure)", "setting": "[1]", "result": "very stable"}, {"measurement": "stability in physiological saline", "setting": "[1]", "result": "stable"}, {"measurement": "stability of 2 mM stock solution in water", "setting": "[1]", "result": "formation of an aggregated product"}, {"measurement": "stability of neat (lyophilized) form on storage", "setting": "[1]", "result": "formed aggregate molecules"}, {"measurement": "effect on biofilm formation", "setting": "V. cholerae N16961; N16961 wildtype, 24 h static, LB, dose-dependent", "result": "increase biofilm formation"}, {"measurement": "effect on biofilm formation", "setting": "V. cholerae N16961; RocS mutant", "result": "increased biofilm forming activity"}, {"measurement": "effect on CFU counts in the mammary gland", "setting": "[2]; 5 or 50 nanomoles per injection", "result": "significant dose-dependent suppressing effect"}, {"measurement": "inhibition of S. aureus infection of the mammary gland (CFU counts)", "setting": "[2]; 50 nanomoles injected into mammary gland at 0 and 4 hr., harvest 10 hrs. post-infection", "result": "at least 10 fold"}, {"measurement": "expression of enterotoxin 1, Down-regulated", "setting": "S. aureus strain DK825", "result": 0.35, "unit": "fold"}, {"measurement": "expression of enterotoxin A, Down-regulated", "setting": "S. aureus strain DK825", "result": 0.54, "unit": "fold"}, {"measurement": "expression of toxic shock syndrome toxin, Down-regulated", "setting": "S. aureus strain DK825", "result": 0.45, "unit": "fold"}, {"measurement": "expression of PBP-2, Up-regulated", "setting": "S. aureus strain DK825; 200 μM vs untreated control", "result": 2.0, "unit": "fold"}, {"measurement": "expression of PBP-4, Up-regulated", "setting": "S. aureus strain DK825; 200 μM vs untreated control", "result": 1.7, "unit": "fold"}, {"measurement": "expression of agrA (quorum sensing), Up-regulated", "setting": "S. aureus strain DK825; 200 μM vs untreated control", "result": 5.4, "unit": "fold"}, {"measurement": "expression of agrB (quorum sensing), Up-regulated", "setting": "S. aureus strain DK825; 200 μM vs untreated control", "result": 5.8, "unit": "fold"}, {"measurement": "expression of agrC (quorum sensing), Up-regulated", "setting": "S. aureus strain DK825; 200 μM vs untreated control", "result": 2.0, "unit": "fold"}, {"measurement": "expression of agrD (quorum sensing), Up-regulated", "setting": "S. aureus strain DK825; 200 μM vs untreated control", "result": 2.2, "unit": "fold"}, {"measurement": "expression of clfA (clumping factor), Down-regulated", "setting": "S. aureus strain DK825; 200 μM vs untreated control", "result": 0.54, "unit": "fold"}, {"measurement": "expression of clfB (clumping factor), Down-regulated", "setting": "S. aureus strain DK825; 200 μM vs untreated control", "result": 0.43, "unit": "fold"}, {"measurement": "expression of collagen adhesin, Down-regulated", "setting": "S. aureus strain DK825; 200 μM vs untreated control", "result": 0.55, "unit": "fold"}, {"measurement": "expression of exfoliative toxin, Down-regulated", "setting": "S. aureus strain DK825; 200 μM vs untreated control", "result": 0.52, "unit": "fold"}, {"measurement": "expression of fbnA (fibrinogen binding), Down-regulated", "setting": "S. aureus strain DK825; 200 μM vs untreated control", "result": 0.66, "unit": "fold"}, {"measurement": "expression of fnbB (fibronectin binding), Down-regulated", "setting": "S. aureus strain DK825; 200 μM vs untreated control", "result": 0.47, "unit": "fold"}, {"measurement": "expression of icaR (intercellular adhesin), Down-regulated", "setting": "S. aureus strain DK825; 200 μM vs untreated control", "result": 0.62, "unit": "fold"}, {"measurement": "expression of rsbW (anti-sigmaB), Up-regulated", "setting": "S. aureus strain DK825; 200 μM vs untreated control", "result": 4.5, "unit": "fold"}, {"measurement": "expression of saeR (response regulator), Up-regulated", "setting": "S. aureus strain DK825; 200 μM vs untreated control", "result": 2.5, "unit": "fold"}, {"measurement": "expression of saeS (histidine kinase), Up-regulated", "setting": "S. aureus strain DK825; 200 μM vs untreated control", "result": 1.5, "unit": "fold"}, {"measurement": "expression of vacuolating cytotoxin, Down-regulated", "setting": "S. aureus strain DK825; 200 μM vs untreated control", "result": 0.56, "unit": "fold"}, {"measurement": "stability in relatively strong alkali (cellulose activating activity)", "setting": "[3]", "result": "labile"}, {"measurement": "effect on biofilm formation", "setting": "Salmonela enteritidis", "result": "induce or enhance biofilm formation"}, {"measurement": "lethality", "setting": "CD-1 mice", "result": "no lethal effects were observed"}]}
